# Results reported in ChEMBL document CHEMBL5543131, “Discovery of Highly Potent Solute Carrier 13 Member 5 (SLC13A5) Inhibitors for the Treatment of Hyperlipidemia” (J Med Chem, 2024).
# Activity calls are given as the source filed them. No cut-off for these calls is given here.
# Assays:
# [1] = system: AML12; assay: Effect on lipid accumulation in oleic and palmitic acid induced mouse AML12 cells assessed as decrease in total cholesterol level; assay type: functional, cell-based; conditions: dose 3-30 µM
# [2] = system: AML12; assay: Effect on lipid accumulation in oleic and palmitic acid induced mouse AML12 cells assessed as decrease in triglyceride level; assay type: functional, cell-based; conditions: dose 3-30 µM
# [3] = biological target: Na(+)/citrate cotransporter (Homo sapiens) (UniProt Q86YT5); assay: Potency index, ratio of citrate Km to test compound Km for binding affinity to SLC13A5 (unknown origin)
# [4] = biological target: Na(+)/citrate cotransporter (Homo sapiens) (UniProt Q86YT5); assay: Competitive inhibition of SLC13A5 (unknown origin) assessed as increase in Km with constant Vmax upto 50 uM
# [5] = system: AML12; assay: Lipid lowering effect on PCN-induced lipid accumulation in mouse AML12 cells assessed as decrease in triglyceride level preincubated with compound for 30 mins followed by PCN addition and measured after 24 hrs; assay type: functional, cell-based; conditions: dose 3-30 µM, time 24.5 hrs
# [6] = system: AML12; assay: Lipid lowering effect on PCN-induced lipid accumulation in mouse AML12 cells assessed as decrease in total cholesterol level preincubated with compound for 30 mins followed by PCN addition and measured after 24 hrs; assay type: functional, cell-based; conditions: dose 3-30 µM, time 24.5 hrs
# [7] = system: AML12; assay: Lipid lowering effect on PCN-induced lipid accumulation in mouse AML12 cells assessed as decrease in FASN mRNA expression level at 3 to 30 uM preincubated with compound for 30 mins followed by PCN addition and measured after 24 hrs by RT-qPCR analysis; assay type: functional, cell-based; conditions: dose 3-30 µM, time 24.5 hrs
# [8] = system: Hepatocyte; assay: Lipid lowering effect on PCN-induced lipid accumulation in mouse Primary hepatocyte assessed as decrease in intracellular triglyceride level; assay type: functional, cell-based; conditions: dose 3-30 µM
# [9] = system: Hepatocyte; assay: Lipid lowering effect on PCN-induced lipid accumulation in mouse Primary hepatocyte assessed as decrease in intracellular total cholesterol level; assay type: functional, cell-based; conditions: dose 3-30 µM
# [10] = system: Hepatocyte; assay: Lipid lowering effect on PCN-induced lipid accumulation in mouse Primary hepatocyte assessed as decrease in ACLY mRNA expression level at 3 to 30 uM by RT-qPCR analysis; assay type: functional, cell-based; conditions: dose 3-30 µM
# [11] = system: Hepatocyte; assay: Lipid lowering effect on PCN-induced lipid accumulation in mouse Primary hepatocyte assessed as decrease in ACC1 mRNA expression level at 3 to 30 uM by RT-qPCR analysis; assay type: functional, cell-based; conditions: dose 3-30 µM
# [12] = system: Hepatocyte; assay: Lipid lowering effect on PCN-induced lipid accumulation in mouse Primary hepatocyte assessed as decrease in HMGCR mRNA expression level at 3 to 30 uM by RT-qPCR analysis; assay type: functional, cell-based; conditions: dose 3-30 µM
# [13] = system: HepG2; assay: Lipid lowering effect on oleic and palmitic acid induced lipid accumulation in human HepG2 cells assessed as decrease in intracellular triglyceride level; assay type: functional, cell-based; conditions: dose 3-30 µM
# [14] = system: HepG2; assay: Lipid lowering effect on oleic and palmitic acid induced lipid accumulation in human HepG2 cells assessed as decrease in intracellular total cholesterol level; assay type: functional, cell-based; conditions: dose 3-30 µM
# [15] = system: HepG2; assay: Lipid lowering effect on PCN-induced lipid accumulation in human HepG2 cells assessed as decrease in ACLY mRNA expression level at 3 to 30 uM by RT-qPCR analysis; assay type: functional, cell-based; conditions: dose 3-30 µM
# [16] = system: HepG2; assay: Lipid lowering effect on PCN-induced lipid accumulation in human HepG2 cells assessed as decrease in FASN mRNA expression level at 3 to 30 uM by RT-qPCR analysis; assay type: functional, cell-based; conditions: dose 3-30 µM
# [17] = system: HepG2; assay: Lipid lowering effect on PCN-induced lipid accumulation in human HepG2 cells assessed as decrease in HMGCR mRNA expression level at 3 to 30 uM by RT-qPCR analysis; assay type: functional, cell-based; conditions: dose 3-30 µM
# [18] = system: Mus musculus; assay: Lipid lowering activity in starvation-induced hyperlipidemic male C57BL/6J mouse model assessed as decrease in triglyceride level in liver at 10 to 30 mg/kg, ip starved for 48 hrs followed by compound administration and measured after 2 hrs; assay type: functional, organism-based; conditions: dose 10-30 mg/kg
# [19] = system: Mus musculus; assay: Lipid lowering activity in starvation-induced hyperlipidemic male C57BL/6J mouse model assessed as downregulation of ACLY gene expression level starved for 48 hrs followed by oral administration of compound and measured after 2 hrs by RT-qPCR analysis; assay type: functional, organism-based; conditions: dose 10-30 mg/kg
# [20] = system: Mus musculus; assay: Lipid lowering activity in starvation-induced hyperlipidemic male C57BL/6J mouse model assessed as downregulation of ACC1 gene expression level starved for 48 hrs followed by oral administration of compound and measured after 2 hrs by RT-qPCR analysis; assay type: functional, organism-based; conditions: dose 10-30 mg/kg
# [21] = system: Mus musculus; assay: Lipid lowering activity in starvation-induced hyperlipidemic male C57BL/6J mouse model assessed as decrease in LDL to HDL cholesterol ratio at 10 to 30 mg/kg, po starved for 48 hrs followed by compound administration and measured after 2 hrs; assay type: functional, organism-based; conditions: dose 10-30 mg/kg
# [22] = system: Mus musculus; assay: Lipid lowering activity in PCN-induced hyperlipidemic male C57BL/6J mouse model assessed as decrease in liver triglyceride level at 10 to 30 mg/kg, IG preadministered with compound for 15 to 30 mins followed by PCN administration and measured after 7 days; assay type: functional, organism-based; conditions: dose 10-30 mg/kg, time 15-10110 min
# [23] = system: Mus musculus; assay: Lipid lowering activity in PCN-induced hyperlipidemic male C57BL/6J mouse model assessed as decrease in plasma total cholesterol level at 10 to 30 mg/kg, IG preadministered with compound for 15 to 30 mins followed by PCN administration and measured after 7 days; assay type: functional, organism-based; conditions: dose 10-30 mg/kg, time 15-10110 min
# [24] = system: Mus musculus; assay: Lipid lowering activity in PCN-induced hyperlipidemic male C57BL/6J mouse model assessed as decrease in ACC1 mRNA expression level preadministered intragastrically with compound for 15 to 30 mins followed by PCN administration and measured after 7 days by RT-qPCR analysis; assay type: functional, organism-based; conditions: dose 10-30 mg/kg, route ig, time 15-10110 min
# [25] = system: Mus musculus; assay: Lipid lowering activity in PCN-induced hyperlipidemic male C57BL/6J mouse model assessed as decrease in FASN mRNA expression level preadministered intragastrically with compound for 15 to 30 mins followed by PCN administration and measured after 7 days by RT-qPCR analysis; assay type: functional, organism-based; conditions: dose 10-30 mg/kg, route ig, time 15-10110 min
# [26] = system: Mus musculus; assay: Lipid lowering activity in PCN-induced hyperlipidemic male C57BL/6J mouse model assessed as decrease in HMGCR mRNA expression level preadministered intragastrically with compound for 15 to 30 mins followed by PCN administration and measured after 7 days by RT-qPCR analysis; assay type: functional, organism-based; conditions: dose 10-30 mg/kg, route ig, time 15-10110 min
# [27] = system: Mus musculus; assay: Effect on SLC13A5 mRNA expression in PCN-induced hyperlipidemic male C57BL/6J mouse model at 10 to 30 mg/kg, IG preadministered with compound for 15 to 30 mins followed by PCN administration and measured after 7 days by RT-qPCR analysis; assay type: functional, organism-based; conditions: dose 10-30 mg/kg, time 15-10110 min
# [28] = system: Mus musculus; assay: Lipid lowering activity in starvation-induced hyperlipidemic male C57BL/6J mouse model assessed as decrease in number of lipid droplets in liver starved for 48 hrs followed by intraperitoneal administration of compound and measured after 2 hrs by Hematoxylin and eosin staining based analysis; assay type: functional, organism-based; conditions: dose 10-30 mg/kg, route ip
# [29] = system: Mus musculus; assay: Lipid lowering activity in starvation-induced hyperlipidemic male C57BL/6J mouse model assessed as decrease in size of lipid droplets in liver starved for 48 hrs followed by intraperitoneal administration of compound and measured after 2 hrs by Hematoxylin and eosin staining based analysis; assay type: functional, organism-based; conditions: dose 10-30 mg/kg, route ip
# [30] = system: Mus musculus; assay: Lipid lowering activity in PCN-induced hyperlipidemic male C57BL/6J mouse model assessed as decrease in lipid accumulation in liver at 30 mg/kg, IG preadministered with compound for 15 to 30 mins followed by PCN administration and measured after 7 days by H&E staining based analysis; assay type: functional, organism-based; conditions: time 15-10110 min
# Chain of Na(+)/citrate cotransporter (Homo sapiens) (Q86YT5 whole entry, looked up): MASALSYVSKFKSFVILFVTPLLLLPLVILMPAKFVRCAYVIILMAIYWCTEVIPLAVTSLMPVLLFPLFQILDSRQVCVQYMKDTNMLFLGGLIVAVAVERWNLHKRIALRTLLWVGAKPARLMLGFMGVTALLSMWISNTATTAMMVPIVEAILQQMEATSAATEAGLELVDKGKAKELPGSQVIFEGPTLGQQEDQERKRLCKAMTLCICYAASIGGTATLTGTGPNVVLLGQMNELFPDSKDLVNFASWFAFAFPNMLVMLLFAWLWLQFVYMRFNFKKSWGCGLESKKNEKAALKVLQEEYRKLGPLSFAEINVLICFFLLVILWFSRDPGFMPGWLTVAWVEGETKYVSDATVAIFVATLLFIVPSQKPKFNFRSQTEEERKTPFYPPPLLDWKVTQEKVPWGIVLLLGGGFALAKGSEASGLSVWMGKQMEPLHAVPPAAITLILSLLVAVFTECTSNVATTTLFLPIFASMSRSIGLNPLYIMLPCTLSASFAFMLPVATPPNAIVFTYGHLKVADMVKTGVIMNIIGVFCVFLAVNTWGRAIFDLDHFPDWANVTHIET
smiles,measurement,setting,value
O=C(O)CC(O)(CCc1ccc(-c2ccccc2)cc1)C(=O)O (stereo not given),Activity,[1],Dose-Dependent Effect
same,Activity,[2],Dose-Dependent Effect
same,Ratio,[3],2
same,inhibition,[4],Active
same,Activity,[5],Dose-Dependent Effect
same,Activity,[6],Dose-Dependent Effect
same,Activity,[7],Active
same,Activity,[8],Dose-Dependent Effect
same,Activity,[9],Dose-Dependent Effect
same,Activity,[10],Active
same,Activity,[11],Active
same,Activity,[12],Active
same,Activity,[13],Dose-Dependent Effect
same,Activity,[14],Dose-Dependent Effect
same,Activity,[15],Active
same,Activity,[16],Active
same,Activity,[17],Active
same,Activity,[18],Active
same,Activity,[19],Dose-Dependent Effect
same,Activity,[20],Dose-Dependent Effect
same,Activity,[21],Active
same,Activity,[22],Active
same,Activity,[23],Active
same,Activity,[24],Dose-Dependent Effect
same,Activity,[25],Dose-Dependent Effect
same,Activity,[26],Dose-Dependent Effect
same,Activity,[27],inactive
same,Activity,[28],Dose-Dependent Effect
same,Activity,[29],Dose-Dependent Effect
same,Activity,[30],Active
